According to US9872928B2, “Diagnostic agent for therapeutic effect on cancer” (HAMAMATSU PHOTONICS K.K., priority 2013, dated 2018):

Key:
mitochondria Complex-1 = assay: Evaluation of binding affinity with respect to mitochondria Complex-1 (displacement of [3H]dihydrorotenone tracer from mitochondrial fraction); design: species or system rat (brain) and bull (heart); conditions: FIG. 1
Protocol: A dose-response curve of each of a TEST substance and a positive substance was created, and a concentration (IC50 value) at which the TEST substance and the positive substance suppress 50% of bonding between a tracer and mitochondrial Complex-1 (receptor) and an absolute inhibition constant (Ki) were calculated. As the TEST substance, [^18F]BMS-747158-02 (2-tert-butyl-4-chloro-5-[4-(2-fluoro-ethoxymethyl)-benzyloxy]-2H-pyri dazin-3-one, hereinafter also referred to as “BMS”), BCPP-EF, BCPP-BF, BCPP-PF, BCPP-EM, and BMS-P were used. The details will be described below.
An animal tissue was weighed (wet weight), a homogenization buffer solution (10 mmol/L Tris-HCl buffer solution (pH, 7.40) of 250 mmol/L sucrose, 1 mmol/L succinic acid, and 0.2 mmol/L EDTA) was added in an amount twice the amount of the animal tissue, and the mixture was homogenized under ice cooling. Thereafter, the homogenized suspension solution was centrifuged (1200×g, 4° C., 20 minutes). The supernatant was collected and centrifuged (26000×g, 4° C., 15 minutes). […] The protein concentration of the mitochondrial fraction was measured using BCA Protein Assay Reagent (manufactured by Pierce Companies). […]
Measurement was performed according to the following order. Two samples were prepared for each concentration, and each sample was measured three times. […]

[1] = test system: SCCVII cells tumor tissue; assay: Judgment of effect of cancer therapy using PET measurement in cancer-bearing mice after X-ray irradiation; format: in vivo, mouse
Protocol: When the tumor volume reached about 100 mm^3, a cancer therapy using irradiation with an X-ray was performed to a tumor site of a mouse at a dose ratio of 1.2 Gy/minute using an apparatus which can perform irradiation with an X-ray having an energy of 250 keV (Hitachi Power Solutions MBR-1520R-3). As conditions of irradiation with X-ray, four conditions of non-irradiation (0 Gy, control), 6 Gy, 15 Gy, and 30 Gy were set. Also after the irradiation treatment, the tumor volume was regularly measured according to the above method.
Two days and seven days after irradiation with X-ray, a mouse with a tumor tissue (cancer-bearing mouse) was anesthetized by isoflurane gas. Thereafter, four mice were fixed at one time in a gantry of an animal PET camera (HAMAMATSU SHR-38000). For absorption correction, transmission measurement was performed using a ^68Ge-^68Ga calibration-ray source for 15 minutes. Thereafter, about 5 MBq/0.2 mL of [^18F]BCPP-EF was administered into a tail vein of a mouse, and dynamic emission measurement was performed for 60 minutes. FIG. 3 illustrates a PET image showing an effect of the radiation therapy in the tumor tissue of a mouse.
After the PET measurement was finished, each of the mice was moved to a small animal X-CT (SHIMADZ Clairvivo CT) with a fixed stand while being anesthetized, and CT measurement was performed for ten minutes. A form image (X-CT image) obtained by the CT measurement was collected, a PET accumulated image 40 to 60 minutes after administration of [^18F]BCPP-EF was superimposed on the X-CT image, and a PET image of a cancer tissue was identified.
An interest region was set on the PET image of the cancer tissue, and a value normalized with a body weight of an individual and an administration radiation dose was used as an accumulation amount of [^18F]BCPP-EF in the cancer tissue. The results are illustrated in FIG. 4.

| Compound | affinity with respect to mitochondria Complex-1 (mitochondria Complex-1; suggested from dose-response curve) | IC50 (concentration suppressing 50% of bonding between tracer and mitochondrial Complex-1), comparison in words (mitochondria Complex-1; tracer dihydrorotenone[2-isopropyl-3H(N)], 22° C., 30 minutes) | accumulation in the tumor tissue (PET) as the irradiation dose was increased ([1]; X-ray 0, 6, 15, 30 Gy, FIGS. 3 and 4) | accumulation in the tumor tissue (PET) ([1]; before the radiation therapy, tail vein administration) | increase in accumulation in proportion to the radiation dose, duration ([1]; seven days after irradiation with radiation, FIGS. 3 and 4) | accumulation in the tumor tissue (PET) ([1]; two days after irradiation with radiation, PET image 40 to 60 minutes after administration) |
| --- | --- | --- | --- | --- | --- | --- |
| CC(C)(C)n1ncc(OCc2ccc(OCCCCF)nc2)c(Cl)c1=O [BCPP-BF] | high affinity | lowest IC50 |  |  |  |  |
| CC(C)(C)n1ncc(OCc2ccc(OCCOCC[18F])nc2)c(Cl)c1=O [[^18F]BCPP-EF] |  |  | increase in accumulation | not observed | continued until seven days after irradiation | increased |
